# According to ChEMBL document CHEMBL5465560, “Selectivity Literature for EUbOPEN Chemogenomic Library” (2024):
# Experiments:
# [1] = molecular target: T1, Muscle, skeletal receptor tyrosine-protein kinase (Homo sapiens) (UniProt O15146); test: Selectivity interaction (KinomeScan (DiscoverX)) EUB0001049a MUSK; conditions: at 1 µM
# T1 sequence (whole entry): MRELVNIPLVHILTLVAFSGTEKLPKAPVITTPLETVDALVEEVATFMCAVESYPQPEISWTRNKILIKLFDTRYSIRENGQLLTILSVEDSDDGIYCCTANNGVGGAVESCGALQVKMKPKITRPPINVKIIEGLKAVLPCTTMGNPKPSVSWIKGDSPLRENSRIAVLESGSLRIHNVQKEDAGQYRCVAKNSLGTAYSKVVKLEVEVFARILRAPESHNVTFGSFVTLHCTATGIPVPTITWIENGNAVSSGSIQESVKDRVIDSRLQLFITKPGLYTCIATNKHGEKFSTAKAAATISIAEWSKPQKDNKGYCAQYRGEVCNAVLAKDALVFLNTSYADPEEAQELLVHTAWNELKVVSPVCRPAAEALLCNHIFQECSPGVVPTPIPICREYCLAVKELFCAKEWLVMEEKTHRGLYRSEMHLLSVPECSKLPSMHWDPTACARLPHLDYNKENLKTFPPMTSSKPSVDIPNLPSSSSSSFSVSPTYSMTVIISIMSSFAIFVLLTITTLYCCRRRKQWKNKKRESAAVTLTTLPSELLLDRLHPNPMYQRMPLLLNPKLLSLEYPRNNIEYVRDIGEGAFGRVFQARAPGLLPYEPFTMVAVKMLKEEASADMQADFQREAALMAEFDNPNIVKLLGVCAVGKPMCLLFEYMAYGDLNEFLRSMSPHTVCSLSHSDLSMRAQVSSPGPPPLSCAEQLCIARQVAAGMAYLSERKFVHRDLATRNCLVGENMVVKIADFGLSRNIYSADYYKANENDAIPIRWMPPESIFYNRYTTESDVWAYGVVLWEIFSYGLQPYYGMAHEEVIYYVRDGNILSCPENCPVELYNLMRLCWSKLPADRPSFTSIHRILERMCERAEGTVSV
# [2] = molecular target: TGF-beta receptor type-2 (Homo sapiens) (UniProt P37173); test: Selectivity interaction (KinomeScan (DiscoverX)) EUB0000666a TGFBR2; conditions: at 10 µM
# TGF-beta receptor type-2 (Homo sapiens), sequence (P37173 whole entry): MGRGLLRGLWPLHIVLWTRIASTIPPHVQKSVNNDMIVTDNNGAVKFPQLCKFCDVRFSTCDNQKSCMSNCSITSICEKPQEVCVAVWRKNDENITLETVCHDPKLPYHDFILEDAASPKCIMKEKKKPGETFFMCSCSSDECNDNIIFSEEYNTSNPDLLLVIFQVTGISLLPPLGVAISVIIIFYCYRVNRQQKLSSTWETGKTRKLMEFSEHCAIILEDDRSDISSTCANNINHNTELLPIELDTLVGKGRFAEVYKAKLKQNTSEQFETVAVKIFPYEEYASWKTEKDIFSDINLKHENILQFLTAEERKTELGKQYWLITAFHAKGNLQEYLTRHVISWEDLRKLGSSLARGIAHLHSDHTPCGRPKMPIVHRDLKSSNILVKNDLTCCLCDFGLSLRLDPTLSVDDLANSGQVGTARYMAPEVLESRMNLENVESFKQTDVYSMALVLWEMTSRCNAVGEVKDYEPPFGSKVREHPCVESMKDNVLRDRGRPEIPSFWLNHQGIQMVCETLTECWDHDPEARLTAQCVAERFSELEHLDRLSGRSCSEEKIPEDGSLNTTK
# [3] = molecular target: Mitogen-activated protein kinase 14 (Homo sapiens, UniProt Q16539); test: Selectivity interaction (Kinase panel (KiNativ target engagement assay in Jurkat cells)) EUB0001635a MAPK14; type: cell-based; conditions: Selectivity number of off-targets 0.0, Selectivity number of targets 233.0, Source Knowledge https://www.sciencedirect.com/science/article/pii/S2451945619300674?via%3Dihub, at 1 µM
# Mitogen-activated protein kinase 14, sequence (Q16539 whole entry): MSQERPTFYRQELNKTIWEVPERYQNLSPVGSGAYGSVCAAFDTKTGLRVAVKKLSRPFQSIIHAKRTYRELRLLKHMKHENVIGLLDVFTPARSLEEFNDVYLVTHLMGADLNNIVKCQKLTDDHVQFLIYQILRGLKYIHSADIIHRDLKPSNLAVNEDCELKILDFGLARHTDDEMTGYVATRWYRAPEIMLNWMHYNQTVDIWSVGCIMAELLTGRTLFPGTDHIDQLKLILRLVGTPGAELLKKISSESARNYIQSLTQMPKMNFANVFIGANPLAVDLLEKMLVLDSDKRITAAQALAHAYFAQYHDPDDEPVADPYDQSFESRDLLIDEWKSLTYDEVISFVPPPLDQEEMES
# [4] = molecular target: T2, Aurora kinase A (Homo sapiens) (UniProt O14965); test: Selectivity interaction (ActivX KiNativ screen (kinase selectivity in THP-1 cell lysates)) EUB0000639a STK6; type: subcellular; conditions: lysate, at 0.04 µM
# T2 sequence (whole entry): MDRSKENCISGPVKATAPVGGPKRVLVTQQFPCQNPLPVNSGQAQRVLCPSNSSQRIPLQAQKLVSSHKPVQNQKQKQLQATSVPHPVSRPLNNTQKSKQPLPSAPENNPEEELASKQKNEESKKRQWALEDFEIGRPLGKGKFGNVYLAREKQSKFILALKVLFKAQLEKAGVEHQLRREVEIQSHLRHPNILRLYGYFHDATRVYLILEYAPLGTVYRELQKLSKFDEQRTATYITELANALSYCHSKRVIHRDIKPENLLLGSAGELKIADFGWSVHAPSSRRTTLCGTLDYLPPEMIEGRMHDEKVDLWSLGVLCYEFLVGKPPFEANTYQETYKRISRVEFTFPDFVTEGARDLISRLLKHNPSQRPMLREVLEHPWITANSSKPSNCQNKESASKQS
# [5] = molecular target: Serine/threonine-protein kinase Chk2 (Homo sapiens) (UniProt O96017); test: Selectivity interaction (KinomeScan (DiscoverX)) EUB0000092b CHEK2; conditions: at 10 µM
# [6] = molecular target: Tyrosine-protein kinase ABL1 (Homo sapiens, UniProt P00519); test: Selectivity interaction (KinomeScan (DiscoverX)) EUB0000045b ABL1; conditions: at 10 µM
# [7] = system: Fibroblast growth factor receptor 3 (Homo sapiens), P22607 [G697C]; test: (§1) Selectivity interaction (KinomeScan (DiscoverX)) EUB0000045b FGFR3
# Fibroblast growth factor receptor 3 (Homo sapiens), P22607 [G697C], sequence (P22607 whole entry G697C): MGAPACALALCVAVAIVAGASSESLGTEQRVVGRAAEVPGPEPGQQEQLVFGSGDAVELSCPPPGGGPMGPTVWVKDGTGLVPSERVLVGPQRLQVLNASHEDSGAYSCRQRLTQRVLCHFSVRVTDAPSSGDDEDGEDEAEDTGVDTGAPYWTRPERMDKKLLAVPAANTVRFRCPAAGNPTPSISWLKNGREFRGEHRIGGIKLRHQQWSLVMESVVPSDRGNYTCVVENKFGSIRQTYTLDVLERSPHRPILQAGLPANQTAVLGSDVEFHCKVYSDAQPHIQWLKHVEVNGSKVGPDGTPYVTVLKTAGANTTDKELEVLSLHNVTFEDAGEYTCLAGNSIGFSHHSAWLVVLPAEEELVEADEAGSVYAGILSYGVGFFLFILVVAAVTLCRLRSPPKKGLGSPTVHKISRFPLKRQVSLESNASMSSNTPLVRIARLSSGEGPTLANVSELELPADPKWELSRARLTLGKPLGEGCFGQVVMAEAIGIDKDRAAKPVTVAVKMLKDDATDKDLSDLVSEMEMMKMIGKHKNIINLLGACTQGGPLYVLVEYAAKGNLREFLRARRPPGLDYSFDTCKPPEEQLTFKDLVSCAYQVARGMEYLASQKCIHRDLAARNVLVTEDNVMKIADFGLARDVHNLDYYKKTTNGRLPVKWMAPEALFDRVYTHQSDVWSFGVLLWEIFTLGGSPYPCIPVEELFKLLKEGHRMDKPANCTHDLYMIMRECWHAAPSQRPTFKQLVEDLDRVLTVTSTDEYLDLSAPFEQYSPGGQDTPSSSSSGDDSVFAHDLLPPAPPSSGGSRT
# [8] = molecular target: Fibroblast growth factor receptor 3 (Homo sapiens, UniProt P22607); test: as §1
# Fibroblast growth factor receptor 3, sequence (P22607 23-806 limits assumed): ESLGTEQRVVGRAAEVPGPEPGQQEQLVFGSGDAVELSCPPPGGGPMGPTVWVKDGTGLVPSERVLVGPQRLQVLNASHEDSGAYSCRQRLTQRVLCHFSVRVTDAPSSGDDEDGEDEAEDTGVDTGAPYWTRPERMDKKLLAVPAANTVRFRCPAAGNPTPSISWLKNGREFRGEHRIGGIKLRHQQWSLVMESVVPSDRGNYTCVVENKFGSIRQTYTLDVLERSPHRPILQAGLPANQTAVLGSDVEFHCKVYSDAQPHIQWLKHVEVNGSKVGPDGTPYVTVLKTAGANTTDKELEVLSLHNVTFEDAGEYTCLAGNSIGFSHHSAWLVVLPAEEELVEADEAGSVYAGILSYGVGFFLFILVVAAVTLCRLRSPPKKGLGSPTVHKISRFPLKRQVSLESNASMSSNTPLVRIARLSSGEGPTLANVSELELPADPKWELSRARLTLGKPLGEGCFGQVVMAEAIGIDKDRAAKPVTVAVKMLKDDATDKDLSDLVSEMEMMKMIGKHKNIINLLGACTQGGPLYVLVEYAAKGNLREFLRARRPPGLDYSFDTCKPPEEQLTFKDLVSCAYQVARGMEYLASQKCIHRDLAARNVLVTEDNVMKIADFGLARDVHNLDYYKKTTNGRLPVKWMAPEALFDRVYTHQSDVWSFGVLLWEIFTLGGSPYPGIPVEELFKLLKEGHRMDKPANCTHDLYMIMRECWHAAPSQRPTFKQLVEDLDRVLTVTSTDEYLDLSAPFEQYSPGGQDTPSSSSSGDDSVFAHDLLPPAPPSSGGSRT
# [9] = molecular target: Serine/threonine-protein kinase 10 (Homo sapiens) (UniProt O94804); test: Selectivity interaction (KinomeScan (DiscoverX)) EUB0001619a STK10; conditions: at 1 µM
# Serine/threonine-protein kinase 10 (Homo sapiens), sequence (O94804 whole entry, looked up): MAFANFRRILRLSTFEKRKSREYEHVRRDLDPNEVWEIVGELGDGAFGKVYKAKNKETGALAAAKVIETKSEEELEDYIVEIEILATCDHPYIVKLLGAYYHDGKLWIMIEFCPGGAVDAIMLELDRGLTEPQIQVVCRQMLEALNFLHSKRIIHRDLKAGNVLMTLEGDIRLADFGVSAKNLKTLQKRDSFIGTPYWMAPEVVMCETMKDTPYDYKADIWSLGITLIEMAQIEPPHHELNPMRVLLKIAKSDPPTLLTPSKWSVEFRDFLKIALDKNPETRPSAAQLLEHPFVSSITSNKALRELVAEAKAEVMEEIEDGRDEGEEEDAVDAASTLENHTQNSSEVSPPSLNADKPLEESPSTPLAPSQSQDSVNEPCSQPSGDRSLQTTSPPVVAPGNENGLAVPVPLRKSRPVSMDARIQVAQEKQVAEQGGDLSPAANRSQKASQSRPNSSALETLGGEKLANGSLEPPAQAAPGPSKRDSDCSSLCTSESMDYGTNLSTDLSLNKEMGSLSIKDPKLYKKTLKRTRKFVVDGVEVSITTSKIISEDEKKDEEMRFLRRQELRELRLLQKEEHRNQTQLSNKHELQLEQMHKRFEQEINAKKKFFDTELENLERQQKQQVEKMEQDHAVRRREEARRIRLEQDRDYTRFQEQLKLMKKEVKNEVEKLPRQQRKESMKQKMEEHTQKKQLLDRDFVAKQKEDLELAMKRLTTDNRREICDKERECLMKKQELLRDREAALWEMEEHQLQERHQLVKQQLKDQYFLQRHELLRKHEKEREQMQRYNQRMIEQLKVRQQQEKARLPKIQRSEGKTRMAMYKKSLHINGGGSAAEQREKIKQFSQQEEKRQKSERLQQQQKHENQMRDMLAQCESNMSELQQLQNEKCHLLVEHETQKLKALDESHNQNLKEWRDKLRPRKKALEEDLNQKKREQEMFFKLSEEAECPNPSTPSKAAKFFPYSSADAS
# [10] = molecular target: Death-associated protein kinase 1 (Homo sapiens, UniProt P53355); test: Selectivity interaction (Upstate Kinase Profiler service (Millipore)) EUB0000056c DAPK1; conditions: at 1 µM
# [11] = molecular target: Serine/threonine-protein kinase N1 (Homo sapiens, UniProt Q16512); test: Selectivity interaction (KinomeScan (DiscoverX)) EUB0000695a PKN1; conditions: at 100 nM
# Serine/threonine-protein kinase N1, sequence (Q16512 2-942 limits assumed): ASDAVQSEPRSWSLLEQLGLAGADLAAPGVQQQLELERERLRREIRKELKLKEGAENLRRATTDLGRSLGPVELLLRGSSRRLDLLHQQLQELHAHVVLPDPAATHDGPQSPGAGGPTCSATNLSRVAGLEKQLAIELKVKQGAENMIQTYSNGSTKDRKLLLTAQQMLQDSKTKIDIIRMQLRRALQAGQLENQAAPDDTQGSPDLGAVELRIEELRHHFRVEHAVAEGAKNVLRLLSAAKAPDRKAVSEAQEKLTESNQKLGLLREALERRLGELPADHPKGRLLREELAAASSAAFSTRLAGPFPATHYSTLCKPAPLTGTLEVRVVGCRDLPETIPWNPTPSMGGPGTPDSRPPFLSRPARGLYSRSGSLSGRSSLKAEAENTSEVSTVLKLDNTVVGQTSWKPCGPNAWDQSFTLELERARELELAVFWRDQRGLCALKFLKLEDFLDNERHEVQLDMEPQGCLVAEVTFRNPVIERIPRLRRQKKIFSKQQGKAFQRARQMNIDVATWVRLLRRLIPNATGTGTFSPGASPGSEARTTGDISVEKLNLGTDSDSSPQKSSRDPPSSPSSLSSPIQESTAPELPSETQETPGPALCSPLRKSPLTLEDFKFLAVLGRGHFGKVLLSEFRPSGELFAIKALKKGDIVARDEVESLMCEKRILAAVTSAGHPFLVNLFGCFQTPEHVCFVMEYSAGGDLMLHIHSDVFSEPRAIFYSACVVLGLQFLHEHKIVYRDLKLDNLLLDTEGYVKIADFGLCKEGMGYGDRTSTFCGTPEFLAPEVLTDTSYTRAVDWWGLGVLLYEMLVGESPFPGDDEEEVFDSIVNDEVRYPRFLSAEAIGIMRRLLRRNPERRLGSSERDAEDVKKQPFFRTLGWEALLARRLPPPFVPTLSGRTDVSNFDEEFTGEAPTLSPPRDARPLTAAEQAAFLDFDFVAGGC
# [12] = molecular target: Protein arginine N-methyltransferase 5 (Homo sapiens, UniProt O14744); test: Selectivity interaction (Methyltransferase screen (radiometric assays, panel of 8 PRMTs, 21 protein lysine methyltransferases, 3 DNA methyltransferases, and one RNA methyltransferase)) EUB0000272b PRMT5
# Protein arginine N-methyltransferase 5, sequence (O14744 whole entry): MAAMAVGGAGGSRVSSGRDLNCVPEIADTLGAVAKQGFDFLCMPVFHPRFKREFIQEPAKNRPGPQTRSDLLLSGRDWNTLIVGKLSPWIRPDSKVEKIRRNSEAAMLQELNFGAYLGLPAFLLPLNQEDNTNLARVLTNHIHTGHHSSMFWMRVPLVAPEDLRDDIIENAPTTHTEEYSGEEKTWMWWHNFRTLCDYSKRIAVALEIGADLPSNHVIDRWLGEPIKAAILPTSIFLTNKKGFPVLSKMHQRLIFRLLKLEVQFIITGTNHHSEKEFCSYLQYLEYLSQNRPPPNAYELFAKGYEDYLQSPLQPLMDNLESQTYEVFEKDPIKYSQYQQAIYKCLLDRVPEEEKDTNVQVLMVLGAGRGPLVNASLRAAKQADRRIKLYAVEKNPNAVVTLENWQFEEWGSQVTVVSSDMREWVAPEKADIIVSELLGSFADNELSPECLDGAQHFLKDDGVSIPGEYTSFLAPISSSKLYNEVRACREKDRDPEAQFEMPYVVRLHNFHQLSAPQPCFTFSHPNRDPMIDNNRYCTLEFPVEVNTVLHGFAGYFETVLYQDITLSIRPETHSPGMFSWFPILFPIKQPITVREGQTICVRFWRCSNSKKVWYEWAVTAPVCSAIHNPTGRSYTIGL
# [13] = molecular target: T3, Mitogen-activated protein kinase kinase kinase 7 (Homo sapiens) (UniProt O43318); test: Selectivity interaction (LanthaScreen Eu Kinase Binding Assay) EUB0001632a MAP3K7; conditions: at 10 µM
# T3 sequence (whole entry): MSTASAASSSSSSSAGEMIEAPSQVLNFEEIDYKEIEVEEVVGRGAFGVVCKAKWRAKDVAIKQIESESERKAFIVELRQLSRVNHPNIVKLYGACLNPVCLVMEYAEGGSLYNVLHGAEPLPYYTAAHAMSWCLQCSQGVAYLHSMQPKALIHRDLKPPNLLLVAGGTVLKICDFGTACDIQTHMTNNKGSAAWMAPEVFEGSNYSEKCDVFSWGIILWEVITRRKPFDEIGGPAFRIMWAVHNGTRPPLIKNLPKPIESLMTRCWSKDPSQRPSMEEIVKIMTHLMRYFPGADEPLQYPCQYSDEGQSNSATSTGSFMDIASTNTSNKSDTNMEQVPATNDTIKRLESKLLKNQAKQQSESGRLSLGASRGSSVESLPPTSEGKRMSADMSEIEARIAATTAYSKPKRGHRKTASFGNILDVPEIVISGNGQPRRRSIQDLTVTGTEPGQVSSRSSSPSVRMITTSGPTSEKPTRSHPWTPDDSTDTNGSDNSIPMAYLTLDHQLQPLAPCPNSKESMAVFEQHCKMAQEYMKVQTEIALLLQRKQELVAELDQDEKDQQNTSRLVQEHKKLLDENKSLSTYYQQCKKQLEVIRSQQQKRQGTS
structure (smiles),measurement,setting,value
COc1cc(Nc2nc(C)cc(-c3cnn4nc(OC)ccc34)n2)cc(C(F)(F)F)c1,% of control,[1],100%
O=C(NOC[C@H](O)CO)c1ccc(F)c(F)c1Nc1ccc(I)cc1F,% of control,[2],100%
C=CC(=O)Nc1ccc(C(=O)Nc2[nH]nc3c2CN(C(=O)N[C@H](CN(C)C)c2ccccc2)C3(C)C)cc1,% of engagement,[3],-6.9%
CC[C@@H]1[C@H](F)C(=O)N[C@@H]1COc1nccc2cc(C(N)=O)c(OC)cc12 [ZIMLOVISERTIB],% of inhibition,[4],-1.3%
CCC(=O)N1CCN(c2ccc(-n3c(=O)ccc4cnc5ccc(-c6cnc7ccccc7c6)cc5c43)cc2C(F)(F)F)CC1,% of control,[5],100%
C=CC(=O)Nc1cc(-n2c(=O)ccc3cnc4ccc(-c5ccc(NS(C)(=O)=O)cc5)cc4c32)ccc1C,% of control,[6],79%
same,% of control,[7]; at 1 µM,26%
same,% of control,[7]; at 10 µM,96%
same,% of control,[8]; at 1 µM,100%
same,% of control,[8]; at 10 µM,100%
N#Cc1cccc(-c2c[nH]c3ncnc(N4CCOCC4)c23)c1,% of control,[9],33%
Cc1ccc(-c2ccc3c(ccc4sc5c(c43)NC[C@@H](C)NC5=O)n2)cn1,% of inhibition,[10],11%
Cc1cc(F)c(C(=O)Nc2cccc(-c3nncn3C(C)C)n2)cc1-n1cnc(C2CC2)c1,% of control,[11],83%
Cc1cc(C)cc([C@H]2c3cc(C)ccc3NC(=O)CN2C(=O)c2ccc(Br)s2)c1,% of activity,[12]; at 1 µM,98.7%
same,% of activity,[12]; at 10 µM,99%
Cn1cc(-n2cnc3c(NCc4nc5cc(Cl)c(Cl)cc5[nH]4)nc(N4CCOCC4)nc32)cn1,% of inhibition,[13],-112%
